From ChEMBL document CHEMBL1137339, “Improved therapeutic efficacy of doxorubicin through conjugation with a novel peptide drug delivery technology (Vectocell)” (J Med Chem, 2006) come the findings set out here.

Non-standard residues stand in square brackets, D forms with d. Residues, ends and D or L forms follow the SMILES beside them. ξ: configuration not given here. *: point of attachment. X1 = COc1cccc2c1C(=O)c1c(O)c3c(c(O)c1C2=O)C[C@@](O)(C(=O)COC(=O)CCCN1C(=O)CC(*)C1=O)C[C@@H]3O[C@H]1C[C@H](N)[C@H](O)[C@H](C)O1; X4 = COc1cccc2c1C(=O)c1c(O)c3c(c(O)c1C2=O)C[C@@](O)(C(=O)CO)C[C@@H]3O[C@H]1C[C@H](NC(=O)CCCN2C(=O)CC(*)C2=O)[C@H](O)[C@H](C)O1; X2 = COc1cccc2c1C(=O)c1c(O)c3c(c(O)c1C2=O)C[C@@](O)(C(=O)C*)CC3O[C@H]1C[C@H](N)[C@H](O)[C@H](C)O1; ξC = NC(CS)C(=O)O

One may read the IC50 as the concentration that inhibits the measured activity by half.

In assay [1] the test system is NCI/ADR-RES. The experiment in a line: Cytotoxicity against doxorubicin-resistant MCF7/Adr cell line by WST1 assay. Type of assay: functional, cell-based. To be noted: Homo sapiens.
In assay [2] the test system is HCT-116. Description: Cytotoxicity against doxorubicin-sensitive HCT116 cell line by WST1 assay. To be noted: Homo sapiens. Type of assay: functional, cell-based. (Tetrazolium dyes change colour on reduction, which living cells bring about.)
Assay [3] relates to HCT-116. Description: Cytotoxicity against doxorubicin-sensitive HCT116 cell line in presence of verapamil by WST1 assay. Type of assay: functional, cell-based. The note with it: Homo sapiens.
Assay [4] deals with MES-SA/Dx5. The experiment in a line: Cytotoxicity against doxorubicin-resistant MES-SA/dx5 cell line in presence of verapamil by WST1 assay. The class given is functional, cell-based. To be noted: Homo sapiens.
Assay [5] has as its system HCT-15. Description: Cytotoxicity against HCT15 cell line by WST1 assay. The class given is functional, cell-based. To be noted: Homo sapiens.
For assay [6], the system named is HCT-116. The experiment in a line: Cytotoxicity against HCT116 cell line xenografted in NMRI nu/nu mouse at 6.5 umol/kg relative to control. Type of assay: functional, Homo sapiens.
The subject of assay [7] is MES-SA/Dx5. Description: Cytotoxicity against MES-SA/dx5 cell line by WST1 assay. The class given is functional, cell-based. To be noted: Homo sapiens.
For assay [8], the system named is NCI/ADR-RES. The experiment in a line: Cytotoxicity against doxorubicin-resistant MCF7/Adr cell line in presence of verapamil by WST1 assay. Type of assay: functional, cell-based. The note with it: Homo sapiens.
Assay [9] has as its system HCT-15. The experiment in a line: Cytotoxicity against doxorubicin-resistant HCT15 cell line in presence of verapamil by WST1 assay. Type of assay: functional, cell-based. The note with it: Homo sapiens.
Assay [10] concerns HCT-116. Description: Cytotoxicity against HCT116 cell line xenografted in NMRI nu/nu mouse at 10 umol/kg relative to control. The class given is functional, Homo sapiens.
The subject of another assay is MCF7. Description: Cytotoxicity against doxorubicin-sensitive MCF7/6 cell line by WST1 assay. Type of assay: functional, cell-based. The note with it: Homo sapiens.
The subject of assay [11] is HCT-116. Description: Cytotoxicity against HCT116 cell line xenografted in NMRI nu/nu mouse at 15 umol/kg relative to control. The class given is functional, Homo sapiens.
Assay [12] relates to MDA-MB-231. Description: Cytotoxicity against MDA-MB-231 cell line xenografted in NMRI nu/nu mouse at 8 umol/kg relative to control. The class given is functional, Homo sapiens.
The test system of assay [13] is MDA-MB-231. The experiment in a line: Cytotoxicity against MDA-MB-231 cell line xenografted in NMRI nu/nu mouse at 10 umol/kg relative to control. Type of assay: functional, Homo sapiens.
Assay [14] concerns MDA-MB-231. Description: Cytotoxicity against MDA-MB-231 cell line xenografted in NMRI nu/nu mouse at 6 umol/kg relative to control. Type of assay: functional, Homo sapiens.

Take H-CVKRGLKLRHVRPRVTRMDV-OH: the IC50 with NCI/ADR-RES [1] and with HCT-116 [2] was > 1000 µM in each case.
As to `COc1cccc2c1C(=O)c1c(O)c3c(c(O)c1C2=O)C[C@@](O)(C(=O)CO)C[C@@H]3O[C@H]1C[C@H](N)[C@H](O)[C@H](C)O1.O=C(O)C(F)(F)F` [DOXORUBICIN TRIFLUOROACETATE], the IC50 in the assay on HCT-116 [3] was 2 µM; with NCI/ADR-RES [1], > 1000 µM; with MES-SA/Dx5 [4] it was 21 µM; in the assay with HCT-116 [2] it was 3 µM; in the assay on HCT-15 [5] it was 283 µM; in the assay on MES-SA/Dx5 [7] it was 600 µM. Besides, the figures for the IC50 in the assay with NCI/ADR-RES [8] and in the assay on HCT-15 [9] were 30 µM and 20 µM, respectively. The Activity with HCT-116 [6] is given as 49.6%.
The compound `COc1cccc2c1C(=O)c1c(O)c3c(c(O)c1C2=O)C[C@@](O)(C(=O)CSCC(N)C(=O)N[C@@H](CO)C(=O)N[C@@H](CCCN=C(N)N)C(=O)N[C@@H](CCCN=C(N)N)C(=O)N[C@@H](C)C(=O)N[C@@H](CCCN=C(N)N)C(=O)N[C@@H](CCCN=C(N)N)C(=O)N[C@@H](CO)C(=O)N1CCC[C@H]1C(=O)N[C@@H](CCCN=C(N)N)C(=O)N[C@@H](Cc1c[nH]cn1)C(=O)N[C@@H](CC(C)C)C(=O)NCC(=O)N[C@@H](CO)C(=O)NCC(=O)N[C@@H](CS)C(=O)O)CC3O[C@H]1C[C@H](N)[C@H](O)[C@H](C)O1.O=C(O)C(F)(F)F` (stereo partly specified) (H-[ξC](X2)SRRARRSPRHLGSGC-OH) came in with an Activity with HCT-116 [10] of 55.8%. Besides, the IC50 in the assay on MCF7 was 37 µM; in the assay with NCI/ADR-RES [1], 121 µM; in the assay on HCT-116 [2], 153 µM.
In the case of `COc1cccc2c1C(=O)c1c(O)c3c(c(O)c1C2=O)C[C@@](O)(C(=O)CO)C[C@@H]3O[C@H]1C[C@H](NC(=O)CCCN2C(=O)CC(SC[C@H](N)C(=O)N[C@H](C(=O)N[C@@H](CCCCN)C(=O)N[C@@H](CCCN=C(N)N)C(=O)NCC(=O)N[C@@H](CC(C)C)C(=O)N[C@@H](CCCCN)C(=O)N[C@@H](CC(C)C)C(=O)N[C@@H](CCCN=C(N)N)C(=O)N[C@@H](Cc3c[nH]cn3)C(=O)N[C@H](C(=O)N[C@@H](CCCN=C(N)N)C(=O)N3CCC[C@H]3C(=O)N[C@@H](CCCN=C(N)N)C(=O)N[C@H](C(=O)N[C@H](C(=O)N[C@@H](CCCN=C(N)N)C(=O)N[C@@H](CCSC)C(=O)N[C@@H](CC(=O)O)C(=O)N[C@H](C(=O)O)C(C)C)[C@@H](C)O)C(C)C)C(C)C)C(C)C)C2=O)[C@H](O)[C@H](C)O1` (stereo partly specified) (H-C(X4)VKRGLKLRHVRPRVTRMDV-OH), the IC50 amounted to 108 µM with MCF7 and 500 µM in the assay with NCI/ADR-RES [1].
For `COc1cccc2c1C(=O)c1c(O)c3c(c(O)c1C2=O)C[C@@](O)(C(=O)COC(=O)CCCN1C(=O)CC(SC[C@H](N)C(=O)N[C@H](C(=O)N[C@@H](CCCCN)C(=O)N[C@@H](CCCN=C(N)N)C(=O)NCC(=O)N[C@@H](CC(C)C)C(=O)N[C@@H](CCCCN)C(=O)N[C@@H](CC(C)C)C(=O)N[C@@H](CCCN=C(N)N)C(=O)N[C@@H](Cc2c[nH]cn2)C(=O)N[C@H](C(=O)N[C@@H](CCCN=C(N)N)C(=O)N2CCC[C@H]2C(=O)N[C@@H](CCCN=C(N)N)C(=O)N[C@H](C(=O)N[C@H](C(=O)N[C@@H](CCCN=C(N)N)C(=O)N[C@@H](CCSC)C(=O)N[C@@H](CC(=O)O)C(=O)N[C@H](C(=O)O)C(C)C)[C@@H](C)O)C(C)C)C(C)C)C(C)C)C1=O)C[C@@H]3O[C@H]1C[C@H](N)[C@H](O)[C@H](C)O1.O=C(O)C(F)(F)F` (stereo partly specified) (H-C(X1)VKRGLKLRHVRPRVTRMDV-OH), the Activity in the assay with HCT-116 [11] worked out at 29.5%; in the assay with MDA-MB-231 [12], 27.6%; in the assay on MDA-MB-231 [13], 16.4%; with MDA-MB-231 [14], 43.4%.
